Earlier results as cited in patent publication US20240390277A1, “LIQUID FORMULATIONS OF TRAZODONE” (Rubicon Research Private Limited, priority 2023, published 2024).

Settings: humans

## O=c1n(CCCN2CCN(c3cccc(Cl)c3)CC2)nc2ccccn12 [Trazodone]
  Volume of distribution: 1.2 L/kg
